Measurements taken from EP4671251A1, “SALTS OF COMPOUNDS, CRYSTAL FORMS THEREOF, PREPARATION METHOD THEREFOR AND USE THEREOF” (TenNor Therapeutics (Suzhou) Limited, priority 2023, dated 2024).
Converted amounts (≈) assume the structure as drawn. Structures can show the parent of a compound that is named as a salt. Where two headings read alike, the source gives them in different places.

Assays:
Type in all cases: physicochemical
[1] = Hygroscopicity test (dynamic vapor sorption, DVS)
Text: The DVS results of the crystal form I (FIG. 12A) show slow weight gains from 0 to 60% RH and 70% RH to 95% RH, and a rapid weight gain from 60% RH to 70% RH.

[2] = Kinetic solubility in water and four biological media at 37 °C; details: for S: Solubility / solubility at 1 h / solubility at 4 h / solubility at 24 h: about 10 mg/mL sample added; for S: Solubility: LOQ = 0.099 µg/mL; for solubility at 1 h / solubility at 4 h / solubility at 24 h: read-out: S: Solubility; for FC: change in appearance: solid by XRPD; for pH: supernatant
Experimental: About 10 mg/mL of sample (on a free base basis) was added to various biological media. After shaking at 100 rpm at 37 °C (for 1/4/24 h), samples 01-05 were centrifuged, and the solids were collected for XRPD test, while the supernatant was used for detection and pH measurement.
Table 9. Kinetic solubility of crystal form I in water and four biological media at 37 °C (mg/mL)

[3] = Stability test, open conditions at 25 °C/60% RH and 40 °C/75% RH for 3 days; details: for Change in appearance / Change in crystal form / Purity: 3 days
Experimental: Samples were separately taken from two crystal forms I and II of the monotriphenylacetate salt of the exemplary compound of formula (II) and left to stand in open conditions at 25 °C/60% RH and 40 °C/75% RH for 3 days.
Table 4. Summary of stability study data

[4] = Acceleration stability test at 40 °C and 75% humidity, one month
Experimental: The commercially available amorphous form of rifabutin and the crystal forms V and VI of the present application were separately placed in a constant-temperature and constant-humidity incubator at 40 °C and 75% humidity for acceleration test. After one month, the change in purity was determined.

[5] = Approximate solubility of the starting free base at room temperature; details: room temperature (about 25 °C)
Experimental: The approximate solubility of the starting free base of the exemplary compound of formula (II) in 5 single solvents and 9 mixed solvents at room temperature (about 25 °C) was also tested. Table 1. Approximate solubility (mg/mL) of the starting free base at room temperature

With `CO[C@H]1/C=C/O[C@@]2(C)Oc3c(C)c(O)c4c(c3C2=O)C2=NC3(CCN(CCn5c([N+](=O)[O-])cnc5C)CC3)NC2=C(NC(=O)/C(C)=C\C=C\[C@H](C)[C@H](O)[C@@H](C)[C@@H](O)[C@@H](C)[C@H](OC(C)=O)[C@@H]1C)C4=O` [Crystal form I of triphenylacetate salt] the water absorption ([1]; 25 °C/80% RH (relative to 0% RH), about 1 H2O) was 1.5%, the hygroscopicity ([1]; DVS, 25 °C/80% RH) was “slightly hygroscopic” and the “change in appearance of crystal form before/after DVS evaluation (XRPD)” value ([1]; before/after DVS) was “no change”. The “S: Solubility” value ([2]; Water, 1 h) was “<LOQ”, the “S: Solubility” value ([2]; Water, 4 h) was “<LOQ” and the “S: Solubility” value ([2]; Water, 24 h) was “<LOQ”. It also gave a solubility at 1 h ([2]; fassgf, pH 1.6, FaSSGF (1.6), 1 h) of 1300 µg/mL, a solubility at 4 h ([2]; fassgf, pH 1.6, FaSSGF (1.6), 4 h) of 1600 µg/mL and a solubility at 24 h ([2]; fassgf, pH 1.6, FaSSGF (1.6), 24 h) of roughly 1600 µg/mL. For the same compound, the solubility at 1 h ([2]; fassif, pH 6.5, FaSSIF (6.5), 1 h) was 12 µg/mL, the solubility at 4 h ([2]; fassif, pH 6.5, FaSSIF (6.5), 4 h) was 5.7 µg/mL and the solubility at 24 h ([2]; fassif, pH 6.5, FaSSIF (6.5), 24 h) was 7.5 µg/mL. The solubility at 1 h ([2]; fessgf, pH 5, FeSSGF (5.0), 1 h) was 120 µg/mL, the solubility at 4 h ([2]; fessgf, pH 5, FeSSGF (5.0), 4 h) was 180 µg/mL and the solubility at 24 h ([2]; fessgf, pH 5, FeSSGF (5.0), 24 h) was 220 µg/mL. The solubility at 1 h ([2]; fessif, pH 5, FeSSIF (5.0), 1 h) was 120 µg/mL, the solubility at 4 h ([2]; fessif, pH 5, FeSSIF (5.0), 4 h) was 120 µg/mL and the solubility at 24 h ([2]; fessif, pH 5, FeSSIF (5.0), 24 h) was 140 µg/mL. For the same compound, the “FC: change in appearance” value ([2]; FaSSGF (1.6), 1 h) was “No”, the “FC: change in appearance” value ([2]; FaSSGF (1.6), 4 h) was “No” and the “FC: change in appearance” value ([2]; FaSSGF (1.6), 24 h) was “No”. For the same compound, the “FC: change in appearance” value ([2]; FaSSIF (6.5), 1 h) was “No”, the “FC: change in appearance” value ([2]; FaSSIF (6.5), 4 h) was “No” and the “FC: change in appearance” value ([2]; FaSSIF (6.5), 24 h) was “No”. For the same compound, the “FC: change in appearance” value ([2]; FeSSGF (5.0), 1 h) was “No”, the “FC: change in appearance” value ([2]; FeSSGF (5.0), 4 h) was “No” and the “FC: change in appearance” value ([2]; FeSSGF (5.0), 24 h) was “No”. The “FC: change in appearance” value ([2]; FeSSIF (5.0), 1 h) was “No”, the “FC: change in appearance” value ([2]; FeSSIF (5.0), 4 h) was “No” and the “FC: change in appearance” value ([2]; FeSSIF (5.0), 24 h) was “No”. For the same compound, the “FC: change in appearance” value ([2]; Water, 1 h) was “No”, the “FC: change in appearance” value ([2]; Water, 4 h) was “No” and the “FC: change in appearance” value ([2]; Water, 24 h) was “No”. The pH ([2]; FaSSGF (1.6), 1 h) was 1.55, the pH ([2]; FaSSGF (1.6), 4 h) was 1.57 and the pH ([2]; FaSSGF (1.6), 24 h) was 1.54. The pH ([2]; FaSSIF (6.5), 1 h) was 6.37, the pH ([2]; FaSSIF (6.5), 4 h) was 6.37 and the pH ([2]; FaSSIF (6.5), 24 h) was 6.40. It also gave a pH ([2]; FeSSGF (5.0), 1 h) of 5.03, a pH ([2]; FeSSGF (5.0), 4 h) of 5.07 and a pH ([2]; FeSSGF (5.0), 24 h) of 5.07. It also gave a pH ([2]; FeSSIF (5.0), 1 h) of 4.85, a pH ([2]; FeSSIF (5.0), 4 h) of 4.84 and a pH ([2]; FeSSIF (5.0), 24 h) of 4.84. It also gave a pH ([2]; Water, 1 h) of 4.45, a pH ([2]; Water, 4 h) of 4.44 and a pH ([2]; Water, 24 h) of 4.62. The Change in appearance ([3]; 25 °C/60% RH Open) was “No change”, the “Change in crystal form” value ([3]; 25 °C/60% RH Open) was “No change” and the Purity ([3]; 25 °C/60% RH Open) was 98.09 Area%. For the same compound, the Change in appearance ([3]; 40 °C/75% RH Open) was “No change”, the “Change in crystal form” value ([3]; 40 °C/75% RH Open) was “No change” and the Purity ([3]; 40 °C/75% RH Open) was 98.22 Area%. For the same compound, the “Starting sample Purity” value ([3]; starting sample, before storage) was 97.23 Area%.

For `CO[C@H]1/C=C/O[C@@]2(C)Oc3c(C)c(O)c4c(c3C2=O)C2=NC3(CCN(CC(C)C)CC3)NC2=C(NC(=O)/C(C)=C\C=C\[C@H](C)[C@H](O)[C@@H](C)[C@@H](O)[C@@H](C)[C@H](OC(C)=O)[C@@H]1C)C4=O` [amorphous product of rifabutin, rifabutin], the Purity ([4]; after one month at 40 °C and 75% humidity) was 95.54% and the “purity of the original sample” value ([4]; original sample, before storage) was 95.9%.

`CO[C@H]1/C=C/O[C@@]2(C)Oc3c(C)c(O)c4c(c3C2=O)C2=NC3(CCN(CCn5c([N+](=O)[O-])cnc5C)CC3)NC2=C(NC(=O)/C(C)=C\C=C\[C@H](C)[C@H](O)[C@@H](C)[C@@H](O)[C@@H](C)[C@H](OC(C)=O)[C@@H]1C)C4=O` [starting free base] showed a solubility ([5]; 2-MeTHF) greater than 41400 µg/mL, a solubility ([5]; 2-MeTHF:MTBE (1:1) v:v) greater than 42400 µg/mL and a solubility ([5]; EtOAc) greater than 40800 µg/mL. It also gave a solubility ([5]; EtOAc:MTBE (1:1) v:v) greater than 41400 µg/mL, a solubility ([5]; IPA) greater than 39200 µg/mL and a solubility ([5]; IPA:H2O (1:1) v:v) of 20500 to 41000 µg/mL (≈ 21.7 to 43.4 mM). The solubility ([5]; IPA:H2O (3:1) v:v) was greater than 41200 µg/mL, the solubility ([5]; IPA:H2O (5:1) v:v) was greater than 41200 µg/mL and the solubility ([5]; IPA:H2O (9:1) v:v) was greater than 41400 µg/mL. For the same compound, the solubility ([5]; IPA:H2O (19:1) v:v) was greater than 42200 µg/mL, the solubility ([5]; IPA:n-Heptane (1:1) v:v) was 20700 to 41400 µg/mL (≈ 21.9 to 43.9 mM) and the solubility ([5]; MTBE) was 6700 to 20100 µg/mL (≈ 7.1 to 21.3 mM). It also gave a solubility ([5]; Toluene) greater than 41400 µg/mL and a solubility ([5]; Toluene:MTBE (1:1) v:v) greater than 42400 µg/mL.
